Data taken from ChEMBL document CHEMBL1136301, “1,2,5,6-tetra-O-benzyl-D-mannitol derivatives as novel HIV protease inhibitors” (Bioorg Med Chem Lett, 2003).

Biological target: Human immunodeficiency virus type 1 protease (Human immunodeficiency virus 1, UniProt Q72874)
Assay: Inhibitory activity against HIV-1 protease

N#Cc1ccc(COCC(OCc2ccccc2)C(O)C(O)C(COCc2ccc(C#N)cc2)OCc2ccccc2)cc1 (stereo not drawn) and N#Cc1ccc(COC(COCc2ccccc2)C(O)C(O)C(COCc2ccccc2)OCc2ccc(C#N)cc2)cc1 (stereo not drawn) are within 1.5-fold of each other in IC50: 4.3 µM for the first, 5.4 µM for the second.

Cc1ccc(COC(COCc2ccccc2)C(O)C(O)C(COCc2ccccc2)OCc2ccc(C)cc2)cc1 (stereo not drawn) and Cc1ccc(COCC(OCc2ccccc2)C(O)C(O)C(COCc2ccc(C)cc2)OCc2ccccc2)cc1 (stereo not drawn) are within 1.5-fold of each other in IC50: 3.7 µM for the first, 3 µM for the second.

Compared with O[C@@H]([C@H](O)[C@@H](COCc1ccccc1)OCc1ccccc1)[C@@H](COCc1ccccc1)OCc1ccccc1, O[C@H]([C@H](O)[C@@H](COCc1ccccc1)OCc1ccccc1)[C@@H](COCc1ccccc1)OCc1ccccc1 is higher in IC50: 2.4 µM for the first, > 50 µM for the second.

O[C@H]([C@H](O)[C@H](COCc1ccccc1)OCc1ccccc1)[C@@H](COCc1ccccc1)OCc1ccccc1 and O[C@H]([C@@H](O)[C@H](COCc1ccccc1)OCc1ccccc1)[C@H](COCc1ccccc1)OCc1ccccc1 cannot be ordered by IC50: > 50 µM for the first, > 50 µM for the second.

First: OC(C(COCc1ccccc1F)OCc1ccccc1)C(O)C(COCc1ccccc1F)OCc1ccccc1 (stereo not drawn)
Second: OC(C(COCc1ccccc1)OCc1ccccc1F)C(O)C(COCc1ccccc1)OCc1ccccc1F (stereo not drawn)
The IC50 of the first is 6.2-fold lower: 0.6 µM for the first, 3.7 µM for the second. The first is the more potent here.

O[C@@H]([C@H](OCc1ccccc1)[C@H](COCc1ccccc1)OCc1ccccc1)[C@@H](COCc1ccccc1)OCc1ccccc1 and O[C@@H](C[C@@H](COCc1ccccc1)OCc1ccccc1)[C@@H](COCc1ccccc1)OCc1ccccc1 cannot be ordered by IC50: > 50 µM for the first, > 50 µM for the second.

OC(C(COCc1ccccc1)OCc1cccc(F)c1)C(O)C(COCc1ccccc1)OCc1cccc(F)c1 (stereo not drawn) and OC(C(COCc1cccc(F)c1)OCc1ccccc1)C(O)C(COCc1cccc(F)c1)OCc1ccccc1 (stereo not drawn) are within 1.5-fold of each other in IC50: 1.8 µM for the first, 1.5 µM for the second.

Going from OC(C(COCc1ccccc1)OCc1ccc(F)cc1)C(O)C(COCc1ccccc1)OCc1ccc(F)cc1 (stereo not drawn) to OC(C(COCc1ccc(F)cc1)OCc1ccccc1)C(O)C(COCc1ccc(F)cc1)OCc1ccccc1 (stereo not drawn), the IC50 rises from 0.7 µM to 2.5 µM (3.6-fold). The first is the more potent here.

First: OC(C(COCc1ccccc1)OCc1ccc(F)cc1F)C(O)C(COCc1ccccc1)OCc1ccc(F)cc1F (stereo not drawn)
Second: OC(C(COCc1ccc(F)cc1F)OCc1ccccc1)C(O)C(COCc1ccc(F)cc1F)OCc1ccccc1 (stereo not drawn)
The IC50 of the first is 1.6-fold lower: 2.6 µM for the first, 4.2 µM for the second.

Going from OCc1ccc(COCC(OCc2ccccc2)C(O)C(O)C(COCc2ccc(CO)cc2)OCc2ccccc2)cc1 (stereo not drawn) to OCc1ccc(COC(COCc2ccccc2)C(O)C(O)C(COCc2ccccc2)OCc2ccc(CO)cc2)cc1 (stereo not drawn), the IC50 rises from 1.2 µM to 10 µM (8.3-fold). The first is the more potent here.

Going from OC(C(COCc1ccccc1)OCc1ccc(C(F)(F)F)cc1)C(O)C(COCc1ccccc1)OCc1ccc(C(F)(F)F)cc1 (stereo not drawn) to OC(C(COCc1ccc(C(F)(F)F)cc1)OCc1ccccc1)C(O)C(COCc1ccc(C(F)(F)F)cc1)OCc1ccccc1 (stereo not drawn), the IC50 falls from 10 µM to 5 µM (2-fold). The second is the more potent here.

Compared with O=C(O)c1ccc(COC(COCc2ccccc2)C(O)C(O)C(COCc2ccccc2)OCc2ccc(C(=O)O)cc2)cc1 (stereo not drawn), O=C(O)c1ccc(COCC(OCc2ccccc2)C(O)C(O)C(COCc2ccc(C(=O)O)cc2)OCc2ccccc2)cc1 (stereo not drawn) is 5.2-fold lower in IC50: 26 µM for the first, 5 µM for the second. The second is the more potent here.

OC(C(COCc1c(F)cccc1F)OCc1ccc(F)cc1)C(O)C(COCc1c(F)cccc1F)OCc1ccc(F)cc1 (stereo not drawn) and OC(C(COCc1c(F)cccc1F)OCc1ccccc1)C(O)C(COCc1c(F)cccc1F)OCc1ccccc1 (stereo not drawn) are the same in IC50: 0.33 µM for the first, 0.33 µM for the second.

Compared with COC(=O)c1ccc(COCC(OCc2ccccc2)C(O)C(O)C(COCc2ccc(C(=O)OC)cc2)OCc2ccccc2)cc1 (stereo not drawn), COC(=O)c1ccc(COC(COCc2ccccc2)C(O)C(O)C(COCc2ccccc2)OCc2ccc(C(=O)OC)cc2)cc1 (stereo not drawn) is 4.2-fold higher in IC50: 2 µM for the first, 8.4 µM for the second. The first is the more potent here.

Compared with OC(C(COCc1ccccc1)OCc1ccc(Br)cc1)C(O)C(COCc1ccccc1)OCc1ccc(Br)cc1 (stereo not drawn), OC(C(COCc1ccc(Br)cc1)OCc1ccccc1)C(O)C(COCc1ccc(Br)cc1)OCc1ccccc1 (stereo not drawn) is 2.9-fold higher in IC50: 2.1 µM for the first, 6 µM for the second. The first is the more potent here.

Compared with NC(=O)c1ccc(COC(COCc2ccccc2)C(O)C(O)C(COCc2ccccc2)OCc2ccc(C(N)=O)cc2)cc1 (stereo not drawn), OC(C(COCc1ccc(Cl)cc1)OCc1ccccc1)C(O)C(COCc1ccc(Cl)cc1)OCc1ccccc1 (stereo not drawn) is 3.8-fold lower in IC50: 20 µM for the first, 5.2 µM for the second. The second is the more potent here.

O[C@@H]([C@H](O)[C@@H](Cc1ccccc1)OCc1ccccc1)[C@@H](Cc1ccccc1)OCc1ccccc1 and O[C@@H]([C@H](O)[C@@H](COc1ccccc1)OCc1ccccc1)[C@@H](COc1ccccc1)OCc1ccccc1 cannot be ordered by IC50: > 50 µM for the first, > 50 µM for the second.

Going from OC(C(COCc1ccc(C(F)(F)F)cc1)OCc1ccc(C(F)(F)F)cc1)C(O)C(COCc1ccc(C(F)(F)F)cc1)OCc1ccc(C(F)(F)F)cc1 (stereo not drawn) to OC(C(COCc1ccc(F)cc1)OCc1ccc(F)cc1)C(O)C(COCc1ccc(F)cc1)OCc1ccc(F)cc1 (stereo not drawn), the IC50 falls from 6 µM to 1.6 µM (3.8-fold). The second is the more potent here.

Compared with NCc1ccc(COC(COCc2ccccc2)C(O)C(O)C(COCc2ccccc2)OCc2ccc(CN)cc2)cc1 (stereo not drawn), OC(C(COCc1ccccc1)OCc1ccc(Cl)cc1)C(O)C(COCc1ccccc1)OCc1ccc(Cl)cc1 (stereo not drawn) is 14-fold lower in IC50: 27 µM for the first, 2 µM for the second.

Compared with Cc1ccccc1COC(COCc1ccccc1F)C(O)C(O)C(COCc1ccccc1F)OCc1ccccc1C (stereo not drawn), OC(C(COCc1ccccc1F)OCc1ccc(F)cc1)C(O)C(COCc1ccccc1F)OCc1ccc(F)cc1 (stereo not drawn) is 4-fold lower in IC50: 0.8 µM for the first, 0.2 µM for the second.

Compared with Cc1ccc(COCC(OCc2ccc(C)cc2)C(O)C(O)C(COCc2ccc(C)cc2)OCc2ccc(C)cc2)cc1 (stereo not drawn), N#Cc1ccc(COCC(OCc2ccc(C#N)cc2)C(O)C(O)C(COCc2ccc(C#N)cc2)OCc2ccc(C#N)cc2)cc1 (stereo not drawn) is 2.3-fold lower in IC50: 7 µM for the first, 3.1 µM for the second.

Compound OC(C(COCc1ccccc1)OCc1c(F)cccc1F)C(O)C(COCc1ccccc1)OCc1c(F)cccc1F (stereo not drawn) has an IC50 of 6.4 µM.
